According to patent publication US9051325B2, “Bicyclic [5,6] imidazo pyrimodone compounds for use in the treatment of diseases or conditions mediated by Lp-PLA2” (GlaxoSmithKline Intellectual Property Development Limited, priority 2013, dated 2015):
Like-named read-outs stand apart in the source and are kept apart here.

Legend:
Lp-PLA2 in human plasma = biological target: T1, Lp-PLA2 in human plasma (Homo sapiens, UniProt Q13093); experiment: Lp-PLA2 human plasma assay (Thio-PAF assay); assay type: biochemical; conditions: pooled human plasma; lower bounds; read-out: pIC50 values in the thio-PAF assay (converted)
T1 construct: from tissue; host or cells: pooled human plasma
T1 sequence (Q13093 22-441): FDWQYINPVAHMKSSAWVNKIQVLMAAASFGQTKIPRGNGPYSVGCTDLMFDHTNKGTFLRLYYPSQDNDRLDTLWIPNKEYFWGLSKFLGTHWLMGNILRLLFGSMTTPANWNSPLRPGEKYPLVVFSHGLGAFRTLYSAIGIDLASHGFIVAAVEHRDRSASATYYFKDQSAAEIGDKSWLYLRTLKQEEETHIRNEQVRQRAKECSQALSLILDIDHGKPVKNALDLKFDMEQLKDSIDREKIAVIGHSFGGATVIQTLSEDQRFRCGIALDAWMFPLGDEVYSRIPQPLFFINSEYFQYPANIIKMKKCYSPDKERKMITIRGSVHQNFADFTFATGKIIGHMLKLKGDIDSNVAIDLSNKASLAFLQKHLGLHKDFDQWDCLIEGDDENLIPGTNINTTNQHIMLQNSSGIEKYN
Source text: (3) Lipoprotein-Associated Phospholipase A2 (Lp-PLA2) Human Plasma Assay (Also Referred to as “Thio-PAF assay”)
The human plasma assay utilizes a thioester analog of PAF (phosphatidylcholine), where hydrolysis yields to the formation of a phospholipid containing a free thiol group. The amount of thiol is quantitated continuously by reacting with CPM (7-diethylamino-3-(4′-maleimidylphenyl)-4-methylcoumarin), a maleimide which increases in fluoresence after Michael addition of thiols. This assay may detect the activity of Lp-PLA2 in human plasma, as determined by specific inhibition by Lp-PLA2 inhibitors.
The thio-PAF assay was run as a quenched 15 μL assay. Compounds source plate was prepared by making 1:3 (by volume) serial dilution of the compounds into pure DMSO on 384-well microplate. 0.01 μL of compounds on compound source plate were transferred to 384 well Greiner 784076 (black) low-volume plates by ECHO liquid dispenser. 8 μL pooled human plasma, which was previously aliquoted and frozen, was added. Plates were centrifuged for 10 sec at 500 rpm. After 30 minutes preincubation, 2 μL of substrate solution comprising 2.5 mM 2-thio-PAF [from ethanol stock], 32 μM CPM [from a DMSO stock] and 3.2 mM NEM (N-ethylmaleimide) [made fresh daily in DMSO] in assay buffer of 50 mM HEPES, pH 7.4, 150 mM NaCl, 1 mM CHAPS was added to 384 well Greiner 784076 (black) low-volume plates by BRAVO liquid handling station. After 2 mins, reaction was quenched with 5 μL of 5% aqueous trifluoroacetic acid (TFA). Plates were covered to protect from light and incubated for 40 min at room temperature. Plates were read at ex: 380/em: 485 using-Envision microplate reader. PIC50 data, curve and QC analysis were conducted by using XLFit module in Excel.

[1] = biological target: T2, recombinant human Lp-PLA2 (Homo sapiens, UniProt Q13093); experiment: Recombinant human Lp-PLA2 assay (rhLp-PLA2, PED6 assay); assay type: biochemical
T2 sequence (Q13093 22-441): T1 sequence (Q13093 22-441)
Source text: (1) Recombinant Human Lp-PLA2 Assay (rhLp-PLA2) (Also Referred to as “PED6” Assay)
N-((6-(2,4-dinitrophenyl)amino)-hexanoyl)-2-(4,4-difluoro-5,7-dimethyl-4-bora-3a,4a-diaza-s-indacene-3-pentanoyl)-1-hexadecanoyl-sn-glycero-3-phosphoethanolamine, triethylammonium salt (PED6) is a commercially available fluorescently-labeled phospholipid, which is commercially available from Invitrogene and Molecular Probes. There is a quenching […] and a Bodipy fluorescein (FL) group in the sn2 position. Upon cleavage with Lp-PLA2, the Bodipy FL group is liberated and then may result in an increase in fluorescence. Inhibitors of Lp-PLA2 therefore prevent this cleavage and no fluorescent increase is observed.
The PED6 assay was run as an unquenched 10 μL assay. The source plate containing the compounds to be tested was prepared by making 1:3 (by volume) serial dilution of the compounds within DMSO on 384-well microplate. Then, 0.01 μL of the compounds on compound source plate were transferred into 384 well Greiner 784076 (black) plates using ECHO liquid dispenser. 5 μL of recombinant human Lp-PLA2 enzyme (4 nM (or […]) rhLp-PLA2 in assay buffer of 50 mM HEPES, pH 7.4, 150 mM NaCl, 1 mM CHAPS) was added to each well of the plate. Plates were centrifuged for 10 sec at 500 rpm. After 30 minutes preincubation, 5 μL of substrate ([…] PED6 [from 5 mM DMSO stock] in assay buffer of 50 mM HEPES, pH 7.4, 150 mM NaCl, 1 mM CHAPS) was added to 384 well Greiner 784076 (black) plates. Plates were centrifuged for 10 sec at 500 rpm. The plate was covered to protect it from light and incubated for 20 min at room temperature. The plates were read for fluorescence intensity at ex: 480/em: 540 using ViewLux microplate imager for Envision spectrofluoroimeters pIC50 data, curve and QC analysis was conducted by using XL fit module in Excel.

[2] = lower bounds, read-out: pIC50 values in the PED6 assay (converted)
[3] = read-out: rhLp-PLA2 (PED6 assay) (pIC50) (converted)

IC50 (Lp-PLA2 in human plasma) | IC50 [1, 2] | IC50 [1, 3] | SMILES
≤ 100 nM | ≤ 1 nM |  | CC1Cn2c(cc(OCc3ccc(Oc4cc(F)cc(C(F)(F)F)c4)c(C#N)c3)nc2=O)N1C (centres unmarked) [Example E1, 5-(((1,2-dimethyl-5-oxo-1,2,3,5-tetrahydroimidazo[1,2-c]pyrimidin-7-yl)oxy)methyl)-2-(3-fluoro-5-(trifluoromethyl)phenoxy)benzonitrile]
≤ 100 nM | ≤ 10 nM |  | CC1Cn2c(cc(OCc3ccc(F)c(F)c3)nc2=O)N1C (centres unmarked) [Example E2, 7-((3,4-difluorobenzyl)oxy)-1,2-dimethyl-2,3-dihydroimidazo[1,2-c]pyrimidin-5(1H)-one]
≤ 100 nM | ≤ 1 nM |  | CC1Cn2c(cc(OCc3ccc(Oc4ccc(C#N)c(C(F)(F)F)c4)c(F)c3)nc2=O)N1C (centres unmarked) [Example E3, 4-(4-(((1,2-dimethyl-5-oxo-1,2,3,5-tetrahydroimidazo[1,2-c]pyrimidin-7-yl)oxy)methyl)-2-fluorophenoxy)-2-(trifluoromethyl)benzonitrile]
≤ 100 nM | ≤ 10 nM |  | C[C@H]1Cn2c(cc(OCc3ccc(F)c(F)c3)nc2=O)N1C [Example E7, (S)-7-((3,4-difluorobenzyl)oxy)-1,2-dimethyl-2,3-dihydroimidazo[1,2-c]pyrimidin-5(1H)-one]
≤ 100 nM | ≤ 10 nM |  | CN1c2cc(OCCc3cccs3)nc(=O)n2CC1(C)C [Example E8, 1,2,2-trimethyl-7-(2-(thiophen-2-yl)ethoxy)-2,3-dihydroimidazo[1,2-c]pyrimidin-5(1H)-one]
≤ 100 nM | ≤ 1 nM |  | C[C@H]1Cn2c(cc(OCc3ccc(Oc4ccnc(C(F)(F)F)c4)c(F)c3)nc2=O)N1C [Example E10, (S)-7-((3-fluoro-4-((2-(trifluoromethyl)pyridin-4-yl)oxy)benzyl)oxy)-1,2-dimethyl-2,3-dihydroimidazo[1,2-c]pyrimidin-5(1H)-one]
≤ 100 nM | ≤ 1 nM |  | CN1c2cc(OCc3ccc(F)c(Cl)c3)nc(=O)n2CC1(C)C [Example E11, 7-((3-chloro-4-fluorobenzyl)oxy)-1,2,2-trimethyl-2,3-dihydroimidazo[1,2-c]pyrimidin-5(1H)-one]
≤ 100 nM | ≤ 1 nM | 0.0316 nM | CN1c2cc(OCc3ccc(Oc4ccc(Cl)nc4)c(F)c3)nc(=O)n2CC1(C)C [Example E12, 7-((4-((6-chloropyridin-3-yl)oxy)-3-fluorobenzyl)oxy)-1,2,2-trimethyl-2,3-dihydroimidazo[1,2-c]pyrimidin-5(1H)-one]
≤ 100 nM | ≤ 1 nM | 0.0501 nM | CN1c2cc(OCc3cc(F)c(Oc4ccc(Cl)nc4)c(F)c3)nc(=O)n2CC1(C)C [Example E13, 7-((4-((6-chloropyridin-3-yl)oxy)-3,5-difluorobenzyl)oxy)-1,2,2-trimethyl-2,3-dihydroimidazo[1,2-c]pyrimidin-5(1H)-one]
≤ 100 nM | ≤ 10 nM |  | [2H]C([2H])(Oc1cc2n(c(=O)n1)CC(C)(C)N2C([2H])([2H])[2H])c1cccc(F)c1F [Example E15, 7-(dideutero(2,3-difluorobenzyl)oxy)-1-trideuteromethyl-2,2-dimethyl-2,3-dihydroimidazo[1,2-c]pyrimidin-5(1H)-one]
≤ 100 nM | ≤ 1 nM |  | C[C@H]1Cn2c(cc(OCc3cc(F)c(Oc4ccc(C(F)(F)F)nc4)c(F)c3)nc2=O)N1 [Example E16, (S)-7-((3,5-difluoro-4-((6-(trifluoromethyl)pyridin-3-yl)oxy)benzyl)oxy)-2-methyl-2,3-dihydroimidazo[1,2-c]pyrimidin-5(1H)-one]
≤ 100 nM | ≤ 1 nM |  | N#Cc1cc(COc2cc3n(c(=O)n2)CCN3C2CC2)ccc1Oc1cccc(C(F)(F)F)c1 [Example E18, 5-(((1-cyclopropyl-5-oxo-1,2,3,5-tetrahydroimidazo[1,2-c]pyrimidin-7-yl)oxy)methyl)-2-(3-(trifluoromethyl)phenoxy)benzonitrile]
≤ 100 nM | ≤ 1 nM |  | C[C@H]1Cn2c(cc(OCc3ccc(Oc4ccc(C#N)c(C(F)(F)F)c4)c(F)c3)nc2=O)N1C [Example E19, (S)-4-(4-(((1,2-dimethyl-5-oxo-1,2,3,5-tetrahydroimidazo[1,2-c]pyrimidin-7-yl)ox-y)methyl)-2-fluorophenoxy)-2-(trifluoromethyl)benzonitrile]
≤ 100 nM | ≤ 1 nM | 0.158 nM | C[C@H]1Cn2c(cc(OCc3ccc(Oc4cncc(Cl)c4)c(F)c3)nc2=O)N1C [Example E23, (S)-7-((4-((5-chloropyridin-3-yl)oxy)-3-fluorobenzyl)oxy)-1,2-dimethyl-2,3-dihydroimidazo[1,2-c]pyrimidin-5(1H)-one]
≤ 100 nM | ≤ 1 nM | 0.0794 nM | CN1c2cc(OCc3cc(F)c(Oc4ccnc(C(F)(F)F)c4)c(F)c3)nc(=O)n2CC1(C)C [Example E25, 7-((3,5-difluoro-4-((2-(trifluoromethyl)pyridin-4-yl)oxy)benzyl)oxy)-1,2,2-trimethyl-2,3-dihydroimidazo[1,2-c]pyrimidin-(1H)-one]
≤ 100 nM | ≤ 1 nM | 0.0158 nM | CN1c2cc(OCc3ccc(Oc4cncc(C(F)(F)F)c4)c(F)c3)nc(=O)n2CC1(C)C [Example E26, 7-((3-fluoro-4-((5-(trifluoromethyl)pyridin-3-yl)oxy)benzyl)oxy)-1,2,2-trimethyl-2,3-dihydroimidazo[1,2-c]pyrimidin-5(1H)-one]
≤ 100 nM | ≤ 1 nM | 0.2 nM | CN1c2cc(OCc3ccc(Oc4ccnc(F)c4)c(F)c3)nc(=O)n2CC1(C)C [Example E29, 7-((3-fluoro-4-((2-fluoropyridin-4-yl)oxy)benzyl)oxy)-1,2,2-trimethyl-2,3-dihydroimidazo[1,2-c]pyrimidin-5(1H)-one]
≤ 100 nM | ≤ 1 nM |  | CN1c2cc(OCc3cc(F)c(Oc4ccnc(Cl)c4)c(F)c3)nc(=O)n2CC1(C)C [Example E30, 7-((4-((2-chloropyridin-4-yl)oxy)-3,5-difluorobenzyl)oxy)-1,2,2-trimethyl-2,3-dihydroimidazo[1,2-c]pyrimidin-5(1H)-one]
≤ 100 nM |  |  | CN1c2cc(OCc3cc(F)c(F)cc3F)nc(=O)n2CC1(C)C [Example E115, 1,2,2-trimethyl-7-((2,4,5-trifluorobenzyl)oxy)-2,3-dihydroimidazo[1,2-c]pyrimidin-5(1H)-one]
≤ 100 nM |  |  | CN1c2cc(OCCc3ccc(F)c(F)c3)nc(=O)n2CC1(C)C [Example E117, 7-(3,4-difluorophenethoxy)-1,2,2-trimethyl-2,3-dihydroimidazo[1,2-c]pyrimidin-5(1H)-one]
